The text below walks through data of ChEMBL document CHEMBL1649248, “Two distinct major facilitator superfamily drug efflux pumps mediate chloramphenicol resistance in Streptomyces coelicolor” (2009).

Assay [1] has as its system Streptomyces coelicolor. Put plainly: Inhibition of MFS efflux pump in apramycin-resistant cmlR1 null mutant Streptomyces coelicolor assessed as reduction in chloramphenicol MIC at 10 ug/ml after 48 hrs relative to control.
Assay [2] deals with Streptomyces coelicolor. Put plainly: Inhibition of MFS efflux pump in apramycin-resistant cmlR2 null mutant Streptomyces coelicolor assessed as reduction in chloramphenicol MIC at 50 ug/ml after 48 hrs relative to control.
The test system of assay [3] is Streptomyces coelicolor. Put plainly: Inhibition of MFS efflux pump in apramycin-resistant cmlR2 null mutant Streptomyces coelicolor assessed as reduction in chloramphenicol MIC at 10 ug/ml after 48 hrs relative to control.
Assay [4] concerns Streptomyces coelicolor. Put plainly: Inhibition of MFS efflux pump in apramycin-resistant cmlR1 null mutant Streptomyces coelicolor assessed as reduction in chloramphenicol MIC at 25 ug/ml after 48 hrs relative to control.
Assay [5] has as its system Streptomyces coelicolor. Put plainly: Inhibition of MFS efflux pump in apramycin-resistant cmlR1 null mutant Streptomyces coelicolor assessed as reduction in chloramphenicol MIC at 50 ug/ml after 48 hrs relative to control.
Assay [6] concerns Streptomyces coelicolor. Put plainly: Inhibition of MFS efflux pump in apramycin-resistant cmlR2 null mutant Streptomyces coelicolor assessed as reduction in chloramphenicol MIC at 25 ug/ml after 48 hrs relative to control.
Assay [7] concerns Streptomyces coelicolor. Put plainly: Inhibition of MFS efflux pump in apramycin-resistant cmlR2 null mutant Streptomyces coelicolor assessed as reduction in chloramphenicol MIC at 75 ug/ml after 48 hrs relative to control.
For assay [8], the system named is Streptomyces coelicolor. Put plainly: Inhibition of MFS efflux pump in apramycin-resistant cmlR1 null mutant Streptomyces coelicolor assessed as reduction in chloramphenicol MIC at 75 ug/ml after 48 hrs relative to control.
In assay [9] the test system is Streptomyces coelicolor. Put plainly: Inhibition of MFS efflux pump in Streptomyces coelicolor assessed as reduction in chloramphenicol MIC at 75 ug/ml after 48 hrs relative to control.
Assay [10] concerns Streptomyces coelicolor. Put plainly: Inhibition of MFS efflux pump in Streptomyces coelicolor assessed as reduction in chloramphenicol MIC at 25 ug/ml after 48 hrs relative to control.
The test system of assay [11] is Streptomyces coelicolor. Put plainly: Inhibition of MFS efflux pump in Streptomyces coelicolor assessed as reduction in chloramphenicol MIC at 10 ug/ml after 48 hrs relative to control.
Assay [12] concerns Streptomyces coelicolor. Put plainly: Inhibition of MFS efflux pump in Streptomyces coelicolor assessed as reduction in chloramphenicol MIC at 50 ug/ml after 48 hrs relative to control.
The subject of assay [13] is Streptomyces coelicolor. Put plainly: Antimicrobial activity against apramycin-resistant cmlR1 null mutant Streptomyces coelicolor B754 after 48 hrs relative to wild type. In kind it is functional.
The test system of assay [14] is Streptomyces coelicolor. Put plainly: Antimicrobial activity against apramycin-resistant cmlR2 null mutant Streptomyces coelicolor B756 after 48 hrs relative to wild type. In kind it is functional.
The test system of assay [15] is Streptomyces coelicolor. Put plainly: Antimicrobial activity against Streptomyces coelicolor B758 overexpressing cmlR1 after 48 hrs relative to wild type. The assay is classed as functional.
The subject of assay [16] is Streptomyces coelicolor. Put plainly: Antimicrobial activity against Streptomyces coelicolor B759 overexpressing cmlR2 after 48 hrs relative to wild type. In kind it is functional.
In assay [17] the test system is Streptomyces coelicolor. Put plainly: Antimicrobial activity against Streptomyces coelicolor after 48 hrs. The assay is classed as functional.

Converted amounts (≈) assume the structure as drawn. Peptide text beside a SMILES is read from it. * marks the point of attachment. βNA = c1ccc2cc(N*)ccc2c1 A value given as a limit tells only on which side of the number the result lay.

Take `COC(=O)[C@H]1[C@H]2C[C@@H]3c4[nH]c5cc(OC)ccc5c4CCN3C[C@H]2C[C@@H](OC(=O)c2cc(OC)c(OC)c(OC)c2)[C@@H]1OC`: the fold change (FC) in the assay with Streptomyces coelicolor [1] came to 2.5; with Streptomyces coelicolor [2], 2; with Streptomyces coelicolor [3], 1.3; in the assay with Streptomyces coelicolor [4] it was 2.5; in the assay on Streptomyces coelicolor [5] it was 3.3; in the assay on Streptomyces coelicolor [6] it was 2. The fold change (FC) was found to be 2 in the assay with Streptomyces coelicolor [7]; 3.3 in the assay on Streptomyces coelicolor [8]; 4 in the assay on Streptomyces coelicolor [9]; 2.7 in the assay on Streptomyces coelicolor [10]; 1.3 with Streptomyces coelicolor [11]; 4 in the assay with Streptomyces coelicolor [12].

With `O=C(N[C@H](CO)[C@H](O)c1ccc([N+](=O)[O-])cc1)C(Cl)Cl` [CHLORAMPHENICOL], the “fold change (FC)” value was found to be 1.6 in the assay with Streptomyces coelicolor [13], 16 in the assay with Streptomyces coelicolor [14], 2 with Streptomyces coelicolor [15] and 4 with Streptomyces coelicolor [16].

For the molecule `CS(=O)(=O)c1ccc([C@@H](O)[C@@H](CF)NC(=O)C(Cl)Cl)cc1` [FLORFENICOL], the “fold change (FC)” value with Streptomyces coelicolor [13] is 1.8; in the assay with Streptomyces coelicolor [14], 3.

Broadly, the MIC is the least concentration at which growth counts as inhibited. Low values mean inhibition by little substance, high ones a need for much substance. As for `N=C(N)NCCC[C@H](NC(=O)[C@@H](N)Cc1ccccc1)C(=O)Nc1ccc2ccccc2c1` [PABETAN] (H-Phe-Arg-βNA), the fold change (FC) with Streptomyces coelicolor [1] was found to be 2.5; with Streptomyces coelicolor [2], 1.7; in the assay with Streptomyces coelicolor [3] it was 1.7; in the assay with Streptomyces coelicolor [4] it was 3.3; in the assay with Streptomyces coelicolor [5], 3.3; in the assay with Streptomyces coelicolor [6] it was 1.7. The fold change (FC) in the assay on Streptomyces coelicolor [7] turned out to be 1.7; in the assay on Streptomyces coelicolor [8], 5; in the assay on Streptomyces coelicolor [9] it was 8; in the assay with Streptomyces coelicolor [10] it was 3.2; in the assay on Streptomyces coelicolor [11], 2.7; in the assay on Streptomyces coelicolor [12], 4. Also, inhibition of growth against Streptomyces coelicolor [17] (MIC) required 200 µg/mL (≈ 448 µM).

With `CS(=O)(=O)c1ccc([C@@H](O)[C@@H](CO)NC(=O)C(Cl)Cl)cc1` [THIAMPHENICOL], the “fold change (FC)” value with Streptomyces coelicolor [14] is more than 10.
